# Earlier results in PMC8451327, “Paradoxical Augmentation of Experimental Spondyloarthritis by RORC Inhibition in HLA-B27 Transgenic Rats” (Frontiers in Immunology, 2021).
# Experiments:
# normal mice = test system: normal mice; set-up: method as in PMID 30972425
# intestinal inflammation = test system: intestinal inflammation; set-up: method as in PMID 30972425
# [1] = test system: psoriatic arthritis (PsA)
# [2] = test system: ankylosing spondylitis (AS)
compound,measurement,setting,value
COc1ccc2c(n1)CCN(C(=O)C1CC(CC(=O)O)C1)[C@H]2C(=O)Nc1cc(F)c2c(c1)CCC2(C)C (some centres unmarked) [TAK-828F],Numbers of Th17 cells and ILC3s in the lamina propria,normal mice,did reduce
same,"Gene expression of IL17A, IL17F and IL-22",intestinal inflammation,suppressed/decreased
same,Intestinal inflammation,intestinal inflammation,suppressed
same,Th17 and Th17/Th1 cell population in mesenteric lymph nodes,intestinal inflammation,significantly reduced
Secukinumab: anti-IL-17A mAb,Signs and symptoms of psoriatic arthritis,[1],reduced
same,Signs and symptoms of ankylosing spondylitis,[2],reduced
ixekizumab: interleukin-17A specific monoclonal antibody,Clinical efficacy in PsA,[1],proven clinical efficacy
same,Clinical efficacy in AS,[2],proven clinical efficacy
